Marks after values point to notes of the source that are not given here.

The text below walks through data of patent publication US20080269188A1, “Oatp-C Gene C463a Polymorphism Underlies Variable Response to Statin Therapy” (INSERM, priority 2005, published 2008).

Assay [1] in a line: FAME study: plasma lipid response to Fluvastatin XL 80 mg in elderly patients with primary hypercholesterolemia, overall and by OATP-C C463A (Pro155Thr) genotype. It is filed as in vivo, human. On the procedure:
The characteristics of the study subjects have been previously reported.^26 Patients were enrolled in a large scale, randomized, double-blind, placebo-controlled multicenter study conducted in France, Italy, Spain, Belgium and Israel. Initially, the aim of this study was to investigate the efficacy and safety of extended-release (XL) Fluvastatin 80 mg once daily for up to one year in elderly patients with primary hypercholesterolemia. The study was approved by the relevant Ethic Committees, and informed consent Was given by all subjects before entering the study. Men or women, aged 70-85 years, with primary hypercholesterolemia (total cholesterol ≧251 mg/dL, triglycerides ≦407 mg/dL and LDL cholesterol ≧159 mg/dL after dietary intervention) were eligible for inclusion. […] OATP-C genotypes were determined in 420 subjects from the Fluvastatin arm of the study.
For each subject, plasma lipid response was calculated based on values obtained at baseline (week—2) and 2 months after treatment. Laboratory methods for lipid and lipoprotein measurements are described elsewhere 26; all parameters were measured at a central laboratory. […] Endpoint fluorescence (FAM™, VIC® or both), corresponding to cleavage of the allele-specific probe (allelic discrimination) was measured using an ABI PRISM 7000 Sequence Detection System (Applied Biosystems, Foster City, Calif.). […]

A short description of assay [2]: ALERT trial (renal transplantation): lipid parameters after 6 weeks of fluvastatin by OATP-C Pro155Thr genotype. Format: in vivo, human. Also noted: TC_Visit 2 / TC_Diff / TG_Visit 2 / TG_Diff / HDL_Visit 2 / HDL_Diff / LDL_Visit 2 / LDL_Diff: unit not given here. To be noted: LSMEAN; for HDL_% change / LDL_% change / TC_% change / TG_% change: 6 weeks; for HDL_Visit 2 / LDL_Visit 2 / TC_Visit 2 / TG_Visit 2: visit 2 (6 weeks of treatment), 40 mg daily; for HDL_Diff / LDL_Diff / TC_Diff / TG_Diff: week 6 minus visit zero. On the procedure:
Given the success of statins, and fluvastatin in particular, in lowering lipid levels and reducing cardiovascular disease in the general population, the Assessment of LEscol (Fluvastatin) in Renal Transplantation (ALERT) clinical trial was performed (Holdaas et al., 2003). This multicenter, randomized, double-blind placebo-controlled study followed […] renal transplant patients for 5-6 years. Patients were assigned to a placebo or fluvastatin (40 mg daily for two years, and 80 mg daily for the remainder of the study) group, and monitored in laboratory blood analysis every six months and annual electrocardiography.
The Alert trial was conducted in centres in the Scandinavian countries, UK, Germany, Belgium, Switzerland and Canada, with only minimal number of non-Caucasian patients. The demographic and baseline LDL-C characteristics are similar between the fluvastatin treatment and the placebo groups, as illustrated in Table 5.
Blood samples from each consenting patient were collected at the individual trial sites. The genomic DNA of each patient was extracted from the blood using the […]™ DNA Isolation Kit (D-50K) and then genotyping was performed. Ultimately, 1375 ALERT samples were genotyped: 693 from the Fluvastatin group (of 1050 total patients) and 682 from the placebo group (of 1052 total patients).
The primary efficacy variables tested were: LDL cholesterol at visit 2 (6 weeks of treatment) and Change in LDL cholesterol. The change in LDL cholesterol was calculated as the difference between the week 6 value and the visit zero value, for patients for whom both numbers were available. Additional efficacy variables tested in the full set of genotypes were: • HDL cholesterol at visit 2 (6 Weeks of treatment) • Change in HDL cholesterol • Total cholesterol at visit 2 (6 weeks of treatment) • Change in total cholesterol • Triglycerides at visit 2 (6 weeks of treatment) • Change in triglycerides.
Association tests used categorical genotypes as the independent variable, with no assumption about dominance, and the various efficacy variables as dependent variables. Tests of continuous dependent variables used an ANCOVA analysis. No adjustment was made for multiple testing effect.
The relevant association test for each phenotype was first performed in the Fluvastatin treated patient set. SNP-phenotype associations with a threshold of p<0.05 were then tested separately in the placebo set to determine Fluvastatin-related pharmacogenetic effect.

For assay [3] the following is noted: taken from Buse J., Clinical Diabetes 2003; cited from earlier work.

On to `CC(C)n1c(/C=C/C(O)CC(O)CC(=O)O)c(-c2ccc(F)cc2)c2ccccc21` (stereo not shown) [Fluvastatin, fluvastatin], for which, in assay [1] (C463A genotype AA (Thr/Thr), n=15, baseline vs 2 months, mean ± SD), the “LDL-C, % Change” value was −41%. For the same compound, the “absolute gain in LDL-C reduction” value in assay [1] (homozygous Thr/Thr vs homozygous wild-type Pro/Pro) was determined as 10%. For the same compound, in assay [2] (Pro155Thr genotype AA, n=16), the HDL_% change is recorded as 18%, the LDL_% change is −34%, the TC_% change is listed as −20% and the TG_% change was found to be 8%. For the same compound, in assay [2] (Pro155Thr genotype AA, n=16), the “HDL_Visit 2” value is reported as 1.58, the “LDL_Visit 2” value came out at 2.68, the “TC_Visit 2” value amounted to 5.17 and the “TG_Visit 2” value came to 2.12. For the same compound, in assay [2] (Pro155Thr genotype AA, n=16), the HDL_Diff is reported as 0.23, the LDL_Diff is −1.45, the TC_Diff was −1.27 and the TG_Diff is −0.037. For the same compound, in assay [2] (Pro155Thr genotype AC, n=167), the HDL_% change turned out to be 8%, the LDL_% change is −23%, the TC_% change was −16% and the TG_% change is listed as −3%. In addition, in assay [2] (Pro155Thr genotype AC, n=167), the “HDL_Visit 2” value is recorded as 1.4, the “LDL_Visit 2” value came to 3.12, the “TC_Visit 2” value came to 5.39 and the “TG_Visit 2” value came out at 1.98. In assay [2] (Pro155Thr genotype AC, n=167), this compound had an HDL_Diff of 0.05, an LDL_Diff of −1.02, a TC_Diff of −1.05 and a TG_Diff of −0.181. Also, in assay [2] (Pro155Thr genotype CC, n=468), the HDL_% change came to 9%, the LDL_% change was −28%, the TC_% change is −18% and the TG_% change was −5%. In assay [2] (Pro155Thr genotype CC, n=468), the “HDL_Visit 2” value was 1.43, the “LDL_Visit 2” value was 2.91, the “TC_Visit 2” value stood at 5.21 and the HDL_Diff turned out to be 0.08. In assay [2] (Pro155Thr genotype CC, n=468), this compound showed an LDL_Diff of −1.22, a TC_Diff of −1.23 and a TG_Diff of −0.226. Also, the Equipotent dose in assay [3] was 80* mg.

On to `CC[C@H](C)C(=O)O[C@H]1C[C@@H](C)C=C2C=C[C@H](C)[C@H](CC[C@@H]3C[C@@H](O)CC(=O)O3)[C@H]21` [Lovastatin, lovastatin], for which the Equipotent dose in assay [3] was 60* mg.

Regarding `CC(C)c1c(C(=O)Nc2ccccc2)c(-c2ccccc2)c(-c2ccc(F)cc2)n1CC[C@@H](O)C[C@@H](O)CC(=O)O` [Atorvastatin, atorvastatin], in assay [3], the Equipotent dose is on record as 10 mg.
